# Reference: ChEMBL document CHEMBL1201862, “PubChem BioAssay data set” (2004)
# Calls of active or inactive are those of the source.
# Legend:
# [1] = Luminescence Cell-Based Dose Confirmation HTS to Identify Activators of 5'UTR Stem-Loop Driven Alpha-Synuclein mRNA Translation in H4 Neuroglioblastoma Cells. [Related pubchem assays: 1829 (Project Summary), 1814 (Primary HTS)]; assay type: functional
# [2] = Luminescence Cell-Based Dose Response HTS to Identify Activators of Luciferase Translation or Activity in H4 […] Cells. [Related pubchem assays: 1829 (Project Summary), 1814 (Primary HTS)]; assay type: functional
# H4 = assay: Luminescence Cell-Based Dose Response HTS to Identify Activators of 5'UTR Stem-Loop Driven Prion Protein mRNA Translation in H4 Neuroglioblastoma Cells. [Related pubchem assays: 1829 (Project Summary), 1814 (Primary HTS)]; assay type: functional; conditions: Homo sapiens
# [3] = luciferase reporter signal suppression in cells – H4 neuroglioma cells, luminescence, dose response (AID 1990); assay type: functional, cell-based
# [4] = Luminescence Cell-Based Dose Response HTS to Identify Inhibitors of 5'UTR Stem-Loop Driven Prion Protein mRNA Translation in H4 Neuroglioblastoma Cells. [Related pubchem assays: 1827 (Project Summary), 1813 (Primary HTS)]; assay type: functional
# [5] = alpha-synuclein stem-loop luciferase translation blockers – H4 neuroglioma cells, luminescence, confirmation (AID 1988); assay type: functional, cell-based
# [6] = reduction of Shn3 3'UTR-driven luciferase in osteoblasts – cell-based, Clone20 osteoblasts, firefly luciferase, cherry-picked, dose response (AID 624132); assay type: functional;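 further: firefly luciferase luminescence from reporter carrying the Shn3 3'UTR in osteoblasts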
# [7] = test system: Streptococcus sp. 'group A'; assay: Streptococcus pyogenes SK(-)GAS viability under kanamycin – luminescence, BacTiterGlo, confirmation, counter-screen for streptokinase expression inhibitor project, dose response (AID 1900); assay type: functional, organism-based
# Streptococcus = assay: GAS UMAA2166 growth inhibition – luminescence, BacTiterGlo, counter-screen for streptokinase expression inhibitor project, dose response (AID 1915); assay type: functional, organism-based;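 further: potency for reduction of bacterial viability or growth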
# cells = assay type: functional
# Cytochrome P450 2D6 = Cytochrome P450 2D6 (Homo sapiens, UniProt P10635);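 further: CYP2D6 member of a cytochrome P450 panel assay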
# Cytochrome P450 1A2 = target: T1, Cytochrome P450 1A2 (Homo sapiens, UniProt P05177);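 further: PubChem cytochrome P450 panel assay, CYP1A2 panel member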
# T1 sequence (P05177 whole entry): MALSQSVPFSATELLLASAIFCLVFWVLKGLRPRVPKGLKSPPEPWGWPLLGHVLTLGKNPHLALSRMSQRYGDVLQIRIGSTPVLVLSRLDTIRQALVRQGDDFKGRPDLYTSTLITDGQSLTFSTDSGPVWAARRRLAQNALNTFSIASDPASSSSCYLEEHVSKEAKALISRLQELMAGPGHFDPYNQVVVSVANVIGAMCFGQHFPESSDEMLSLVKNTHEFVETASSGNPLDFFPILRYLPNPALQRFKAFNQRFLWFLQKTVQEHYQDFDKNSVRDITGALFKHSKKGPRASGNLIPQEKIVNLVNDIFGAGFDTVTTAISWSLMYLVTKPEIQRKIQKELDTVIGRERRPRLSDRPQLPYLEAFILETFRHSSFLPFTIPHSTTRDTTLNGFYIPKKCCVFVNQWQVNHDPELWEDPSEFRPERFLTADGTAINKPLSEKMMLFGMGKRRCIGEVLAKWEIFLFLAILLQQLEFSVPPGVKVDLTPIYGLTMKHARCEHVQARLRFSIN
# Cytochrome P450 3A4 = Cytochrome P450 3A4 (Homo sapiens, UniProt P08684);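 further: CYP3A4 tested as one member of a cytochrome P450 panel screen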
# Cytochrome P450 2C9 = Cytochrome P450 2C9 (Homo sapiens, UniProt P11712)
# [8] = target: T2, Polyadenylate-binding protein 1 (Homo sapiens, UniProt P11940); assay: MLLE binding blockers, Cy5 peptide tracer – biochemical, fluorescence polarization, Cy5-PAM2 peptide, secondary, miRNA deadenylation inhibitor project, dose response (AID 602260); assay type: functional; conditions: read-out: IC50_Mean
# [9] = target: T2, Polyadenylate-binding protein 1; assay: MLLE domain peptide-binding blockers, IC50 – biochemical, fluorescence polarization, FITC-PAM2 peptide, dose response (AID 602259); assay type: functional; conditions: read-out: IC50_Mean
# [10] = target: T3, Heat shock factor protein 1 (Mus musculus, UniProt P38532); assay: decrease of HSF1-responsive luciferase luminescence – cell-based, NIH3T3, dose retest, confirmation (AID 2382); assay type: functional;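 further: NIH3T3 fibroblasts with HSF1-driven luciferase reporter stressed by proteasome inhibitor MG132; luminescence from HSF1-driven luciferase expression after 8 hours of MG132 stress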
# T3 sequence (P38532 whole entry): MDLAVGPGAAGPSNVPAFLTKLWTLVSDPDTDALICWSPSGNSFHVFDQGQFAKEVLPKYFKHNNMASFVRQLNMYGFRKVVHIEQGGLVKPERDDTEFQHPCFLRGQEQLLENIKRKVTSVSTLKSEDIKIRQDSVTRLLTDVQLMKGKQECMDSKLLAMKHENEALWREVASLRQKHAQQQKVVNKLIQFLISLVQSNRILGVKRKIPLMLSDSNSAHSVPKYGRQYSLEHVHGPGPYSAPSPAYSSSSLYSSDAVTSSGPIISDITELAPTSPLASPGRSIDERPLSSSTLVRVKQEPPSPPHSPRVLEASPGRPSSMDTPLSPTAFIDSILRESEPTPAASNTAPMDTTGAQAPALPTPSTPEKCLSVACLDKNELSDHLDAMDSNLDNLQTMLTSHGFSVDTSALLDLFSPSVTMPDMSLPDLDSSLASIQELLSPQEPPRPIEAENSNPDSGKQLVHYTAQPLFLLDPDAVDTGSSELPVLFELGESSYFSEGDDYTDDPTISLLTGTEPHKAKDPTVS
# Cytochrome P450 2C19 = Cytochrome P450 2C19 (Homo sapiens, UniProt P33261); assay: Cytochrome panel assay with activity outcomes. Panel member name: p450-cyp2c19 Compounds with AC50 equal or less than 10 uM are considered active; assay type: functional; conditions: read-out: AC50
# Sequence of Cytochrome P450 2C19 (P33261 whole entry): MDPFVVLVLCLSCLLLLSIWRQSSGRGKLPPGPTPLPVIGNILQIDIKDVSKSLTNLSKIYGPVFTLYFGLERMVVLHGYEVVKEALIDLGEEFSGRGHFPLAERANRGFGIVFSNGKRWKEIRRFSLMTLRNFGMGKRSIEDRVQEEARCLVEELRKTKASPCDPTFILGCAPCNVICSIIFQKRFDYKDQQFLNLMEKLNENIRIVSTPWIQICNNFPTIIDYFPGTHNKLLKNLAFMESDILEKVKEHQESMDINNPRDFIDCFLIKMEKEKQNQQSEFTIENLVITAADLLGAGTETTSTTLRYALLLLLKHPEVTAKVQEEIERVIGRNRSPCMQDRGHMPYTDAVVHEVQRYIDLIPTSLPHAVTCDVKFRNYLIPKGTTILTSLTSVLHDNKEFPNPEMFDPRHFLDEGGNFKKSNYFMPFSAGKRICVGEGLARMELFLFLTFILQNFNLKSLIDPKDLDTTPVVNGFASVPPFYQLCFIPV
# Sequence of Cytochrome P450 2C9 (P11712 whole entry): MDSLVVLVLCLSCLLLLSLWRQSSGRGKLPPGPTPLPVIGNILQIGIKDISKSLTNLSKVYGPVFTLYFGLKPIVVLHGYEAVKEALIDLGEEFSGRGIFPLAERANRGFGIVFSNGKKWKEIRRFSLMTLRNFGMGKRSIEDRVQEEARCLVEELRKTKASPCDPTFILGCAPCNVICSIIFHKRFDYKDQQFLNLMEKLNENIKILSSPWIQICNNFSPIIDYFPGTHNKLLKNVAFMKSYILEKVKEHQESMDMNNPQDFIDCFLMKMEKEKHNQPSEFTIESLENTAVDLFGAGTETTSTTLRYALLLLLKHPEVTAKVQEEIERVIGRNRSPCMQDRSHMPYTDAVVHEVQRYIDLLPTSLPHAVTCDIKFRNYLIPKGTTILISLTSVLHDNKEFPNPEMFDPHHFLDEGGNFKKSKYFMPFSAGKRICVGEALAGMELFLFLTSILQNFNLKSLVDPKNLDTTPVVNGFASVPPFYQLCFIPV
# Sequence of Cytochrome P450 2D6 (P10635 whole entry): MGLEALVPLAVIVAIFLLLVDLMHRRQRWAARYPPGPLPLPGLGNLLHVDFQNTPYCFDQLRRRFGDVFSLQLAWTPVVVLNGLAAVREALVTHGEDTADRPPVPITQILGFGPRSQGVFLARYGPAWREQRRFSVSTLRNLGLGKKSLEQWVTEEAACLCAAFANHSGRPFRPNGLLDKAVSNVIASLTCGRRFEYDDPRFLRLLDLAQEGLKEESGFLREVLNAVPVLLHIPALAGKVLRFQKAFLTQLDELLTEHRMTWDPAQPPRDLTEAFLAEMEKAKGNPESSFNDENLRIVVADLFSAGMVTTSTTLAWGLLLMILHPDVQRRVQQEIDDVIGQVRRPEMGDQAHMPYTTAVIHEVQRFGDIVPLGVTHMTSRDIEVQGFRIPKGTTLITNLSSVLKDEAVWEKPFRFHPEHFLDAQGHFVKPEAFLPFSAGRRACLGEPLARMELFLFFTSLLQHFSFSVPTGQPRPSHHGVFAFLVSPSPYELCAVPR
# Sequence of Cytochrome P450 3A4 (P08684 whole entry): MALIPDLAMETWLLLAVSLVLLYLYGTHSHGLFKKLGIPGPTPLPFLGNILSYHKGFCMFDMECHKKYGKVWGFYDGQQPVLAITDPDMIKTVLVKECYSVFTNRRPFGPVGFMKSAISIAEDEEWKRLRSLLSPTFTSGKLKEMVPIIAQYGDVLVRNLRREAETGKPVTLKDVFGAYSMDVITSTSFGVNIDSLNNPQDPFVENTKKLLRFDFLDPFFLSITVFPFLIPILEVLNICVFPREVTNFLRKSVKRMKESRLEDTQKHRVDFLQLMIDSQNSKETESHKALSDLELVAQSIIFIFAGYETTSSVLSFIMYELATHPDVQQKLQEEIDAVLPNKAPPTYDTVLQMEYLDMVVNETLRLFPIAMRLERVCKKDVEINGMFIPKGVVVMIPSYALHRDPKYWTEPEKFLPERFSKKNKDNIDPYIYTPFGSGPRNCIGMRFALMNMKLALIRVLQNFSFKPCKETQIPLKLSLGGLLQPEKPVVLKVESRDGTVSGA
# T2 sequence (P11940 whole entry, the tested form may be a part): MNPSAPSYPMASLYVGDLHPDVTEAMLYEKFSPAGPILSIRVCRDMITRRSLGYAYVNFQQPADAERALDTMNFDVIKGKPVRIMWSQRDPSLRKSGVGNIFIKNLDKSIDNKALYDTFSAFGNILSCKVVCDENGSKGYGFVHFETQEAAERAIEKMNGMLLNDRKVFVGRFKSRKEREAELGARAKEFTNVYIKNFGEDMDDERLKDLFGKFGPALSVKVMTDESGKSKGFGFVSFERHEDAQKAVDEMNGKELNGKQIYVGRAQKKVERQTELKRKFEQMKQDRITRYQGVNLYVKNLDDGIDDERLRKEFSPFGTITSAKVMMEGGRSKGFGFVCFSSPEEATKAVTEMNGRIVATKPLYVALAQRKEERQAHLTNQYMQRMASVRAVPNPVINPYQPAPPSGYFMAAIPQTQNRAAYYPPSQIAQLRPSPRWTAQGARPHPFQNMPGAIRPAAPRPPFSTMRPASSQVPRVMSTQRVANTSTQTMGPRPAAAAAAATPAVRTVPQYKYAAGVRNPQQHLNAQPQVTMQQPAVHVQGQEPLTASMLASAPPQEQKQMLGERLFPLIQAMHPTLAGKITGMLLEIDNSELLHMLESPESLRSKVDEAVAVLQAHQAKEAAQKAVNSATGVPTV
structure (smiles),measurement,setting,value
O=C1/C(=C/c2cccnc2)Oc2cc(OS(=O)(=O)c3ccccc3)ccc21,EC50,[1],18.3 µM (active)
same,EC50,[2],8.55 µM (active)
same,EC50,H4,> 120 µM (not active)
Cn1c(CN2CCOCC2)nc2cc(NC(=O)c3ccc(Cl)cc3)ccc21,EC50,[1],26.7 µM (active)
same,EC50,[2],14.3 µM (active)
same,EC50,H4,> 120 µM (not active)
COc1ccc2oc(=O)c(C(=O)N3CCN(c4ccccc4C)CC3)cc2c1,EC50,[1],57 µM (active)
same,EC50,[2],17 µM (active)
same,EC50,H4,19 µM (active)
Cc1ccc(NC(=O)C2C3CCCC2C3c2ccccc2)c(C)c1 (stereo not given),EC50,[3],> 120 µM (not active)
same,EC50,[4],> 120 µM (not active)
same,EC50,[5],> 120 µM (not active)
O=C(NCCNc1ccc([N+](=O)[O-])cc1Cl)c1ccccc1F,EC50,[3],> 120 µM (not active)
same,EC50,[4],26.4 µM (active)
same,EC50,[5],76.3 µM (active)
CCN(CC)C(=O)[C@H]1C[C@H](CC(=O)NC/C=C(\C)CCC=C(C)C)C(=O)N2CCc3c([nH]c4cc(CCC(=O)N(C)C)ccc34)[C@]12C,AC50,[6],1.37 µM (active)
Cc1ccc2c(c1)C(c1ccncc1)=NNC(c1ccccc1)=N2,EC50,[1],0.364 µM (active)
same,EC50,[2],> 120 µM (not active)
same,EC50,H4,21.2 µM (active)
O=C1N=C(Nc2ccccn2)SC1Cc1ccc(Cl)cc1 (stereo not given),EC50,[7],83.8 µM (active)
same,EC50,Streptococcus,> 150 µM (not active)
same,IC50,cells,> 25 µM (active)
CCOC(=O)c1cnn(-c2ccc(C(C)C)cc2)c1NC(=O)C1CCC1,EC50,[1],13.4 µM (active)
same,EC50,[2],18.9 µM (active)
same,EC50,H4,> 120 µM (not active)
same,AC50,Cytochrome P450 2D6,8.91 µM (inconclusive)
same,AC50,Cytochrome P450 1A2,14.1 µM (inconclusive)
same,AC50,Cytochrome P450 3A4,39.8 µM (inconclusive)
same,AC50,Cytochrome P450 2C9,39.8 µM (inconclusive)
CCOC(=O)c1c(NC(=O)C2(C)Cc3ccccc3C(=O)O2)sc2c1CCCC2 (stereo not given),IC50,[8],> 66 µM (inactive)
same,IC50,[9],> 66 µM (inactive)
Cc1n[nH]c(SCC(=O)N2CCCCC2)c1[N+](=O)[O-],EC50,[1],14.7 µM (active)
same,EC50,[2],8.02 µM (active)
same,EC50,H4,17.3 µM (active)
CCCOC(=O)c1ccc(NC(=O)c2ccccc2OC)cc1,IC50,cells,11.3 µM (active)
CCN1C(=O)/C(=C\NC2CCCC(C)C2C)SC1=S (stereo not given),EC50,[1],0.564 µM (active)
same,EC50,[2],15.8 µM (active)
same,EC50,H4,> 120 µM (not active)
Cc1nn(C(C)(C)C)c(OC(=O)c2ccco2)c1Sc1ccccc1,AC50,Cytochrome P450 1A2,14.1 µM (inconclusive)
same,AC50,Cytochrome P450 3A4,39.8 µM (inconclusive)
CCOC(=O)c1cc(-c2ccccc2)nc2nc(N3CCCCC3)sc12,EC50,[3],14.8 µM (active)
same,EC50,[4],24.3 µM (active)
same,EC50,[5],103 µM (active)
CCCC(=O)Nc1cccc(-c2nc3ccccc3c(=O)o2)c1,IC50,cells,10.4 µM (active)
O=c1oc2ccccc2cc1NCc1ccccc1O,EC50,[1],0.325 µM (active)
same,EC50,[2],5.63 µM (active)
same,EC50,H4,46.2 µM (active)
Cc1onc(-c2c(F)cccc2Cl)c1C(=O)NC(=S)Nc1c(C)n(C)n(-c2ccccc2)c1=O,IC50,[8],> 66 µM (inactive)
same,IC50,[9],> 66 µM (inactive)
S=C(c1ccc(N2CCOCC2)cc1)N1CCOCC1,EC50,[10],> 195 µM (not active)
same,IC50,[8],> 66 µM (inactive)
same,IC50,[9],> 66 µM (inactive)
CC1CC(C)CN(C(=O)CNS(=O)(=O)c2ccc(Br)s2)C1 (stereo not given),AC50,Cytochrome P450 1A2,15.8 µM (inconclusive)
same,AC50,Cytochrome P450 3A4,11.2 µM (inconclusive)
same,AC50,Cytochrome P450 2C9,10 µM (inconclusive)
Cc1noc(C)c1-c1cncnc1NCCN1CCOCC1,AC50,Cytochrome P450 2C19,0.0398 µM (inconclusive)
same,AC50,Cytochrome P450 1A2,31.6 µM (inconclusive)
O=c1c(-c2ccccc2)nc2cnc(N3CCOCC3)nc2n1CCc1ccccc1,AC50,Cytochrome P450 1A2,12.6 µM (inconclusive)
same,AC50,Cytochrome P450 3A4,31.6 µM (inconclusive)
CCOC(=O)c1cc(COc2cc(Cl)cc(Cl)c2)on1,IC50,cells,1.97 µM (active)
O=C(CSC1=NC2(CCCCC2)N=C1c1ccccc1)Nc1ccc2c(c1)OCCO2,IC50,[8],> 66 µM (inactive)
same,IC50,[9],> 66 µM (inactive)
Cc1cc(Cn2cnc3c2C[C@@H](C(=O)O)N(C(=O)C(c2ccccc2)c2ccccc2)C3)ccc1N(C)C,AC50,Cytochrome P450 2D6,39.8 µM (inconclusive)
same,AC50,Cytochrome P450 1A2,25.1 µM (inconclusive)
Cc1ccc(C(=O)Nc2cccc(C(F)(F)F)c2)cc1NC(=O)c1cnnc2ccccc12,EC50,[3],13.2 µM (active)
same,EC50,[4],18.9 µM (active)
same,EC50,[5],> 120 µM (not active)
COCCCNC(=O)c1ccc(Cn2c(=O)c3ccccc3n(Cc3ccccc3C#N)c2=O)cc1,EC50,[3],20.7 µM (active)
same,EC50,[4],> 120 µM (not active)
same,EC50,[5],> 120 µM (not active)
Cc1cc([C@](C)(N)C(=O)O)ccc1P(=O)(O)O,AC50,Cytochrome P450 2D6,12.6 µM (inconclusive)
same,AC50,Cytochrome P450 1A2,31.6 µM (inconclusive)
O=C(c1cnccn1)N1CCC[C@@]2(CCN(C(c3ccccc3)c3ccccc3)C2)C1,AC50,Cytochrome P450 1A2,15.8 µM (inconclusive)
same,AC50,Cytochrome P450 3A4,2.51 µM (inconclusive)
Cc1ccc(C2=[N+]([O-])C3(CCCCC3=O)N(O)C2(C)C)cc1 (stereo not given),EC50,[3],> 120 µM (not active)
same,EC50,[4],> 120 µM (not active)
same,EC50,[5],42.6 µM (active)
Cc1nc2ccccn2c1C(=O)C1=C(O)C(=O)N(CCN(C)C)C1c1ccco1 (stereo not given),IC50,[8],> 66 µM (inactive)
same,IC50,[9],> 66 µM (inactive)
O=C(Cc1ccc(Cl)cc1)OCC(=O)c1ccc[nH]1,IC50,cells,18.8 µM (active)
COc1ccc(N/N=C2/CCCCC2=O)cc1,IC50,[8],> 66 µM (inactive)
same,IC50,[9],> 66 µM (inactive)
Cc1ccc(CSc2nnc(SCC(=O)N/N=C/c3c(C)nn(-c4ccccc4)c3C)s2)cc1,EC50,[1],0.169 µM (active)
same,EC50,[2],> 120 µM (not active)
same,EC50,H4,43.9 µM (active)
CC(C)(C)C1CCc2onc(C(=O)Nc3cnn(Cc4ccc(F)cc4)c3)c2C1 (stereo not given),EC50,[3],28.2 µM (active)
same,EC50,[4],23.3 µM (active)
same,EC50,[5],> 120 µM (not active)
CCCn1c(=O)c(C(=O)N/N=C/c2ccccc2F)c(O)c2ccccc21,IC50,cells,48.2 µM (active)
COc1ccccc1/C=N/N=C(/Nc1ccc(C)cc1)c1nc2ccccc2s1,AC50,Cytochrome P450 1A2,14.1 µM (inconclusive)
same,AC50,Cytochrome P450 3A4,17.8 µM (inconclusive)
same,AC50,Cytochrome P450 2C9,17.8 µM (inconclusive)
COc1ccccc1/C=C/C=N/NC(=O)c1ccncc1,IC50,cells,0.44 µM (active)
O=C1c2c(O)cc(O)cc2O[C@@H](c2ccc(O)c(O)c2)[C@H]1O [(+)-EPITAXIFOLIN],AC50,Cytochrome P450 1A2,15.8 µM (inconclusive)
O=C(O)CNC(=O)c1ccccc1O [SALICYLURIC ACID],AC50,Cytochrome P450 1A2,5.01 µM (inconclusive)
